In US4079141A, “Azabicycloalkanes” (priority 1976, dated 1978):
Like-named read-outs stand apart in the source and are kept apart here.

Assays:
[1] = tested on: mania (increased motor activity) produced in mice by morphine; experiment: Morphine antagonist test: inhibition of the characteristic mania (increased motor activity) produced in mice by morphine; format: in vivo; conditions: for % Inhibition (percent of pairs in which the mania is inhibited): subcutaneous, concurrently with 25 mg/kg morphine sulfate, 10 pairs of mice
Experimental: A sample of 25 mg/kg of body weight of morphine sulfate and the compound of the invention to be tested are concurrently administered subcutaneously to 10 pairs of mice. The mice are then observed for inhibition of the characteristic mania (increased motor activity) normally produced in mice by morphine. Results are outlined in Table II and expressed as percent of pairs in which the mania is inhibited at a given dose level.

[2] = tested on: 2-phenyl-1,4-quinone induced writhing; experiment: 2-phenyl-1,4-quinone induced writhing assay in mice (analgesia); format: in vivo; conditions: Mus musculus, sc, read-out: ED50 (inhibition of writhing)
Description: Compounds of the invention are useful as analgesic agents due to their ability to alleviate pain in mammals. […] Exptl. Biol. Med., 95, 729 (1957)].

[3] = 0.25 h, mice, subcutaneous, drug administration time 15 minutes
[4] = 0.5 h, mice, subcutaneous, drug administration time 30 minutes

SMILES | ED50 [2, 3] [mg/kg] | ED50 [2, 4] [mg/kg] | % Inhibition (percent of pairs in which the mania is inhibited) ([1]; dose 50 mg/kg) [%] | other results
Oc1cccc(C23CCC(C2)N(Cc2ccco2)CC3)c1 (stereo not shown) [2-(2-furylmethyl)-5-(3-hydroxyphenyl)-2-azabicyclo[3.2.1]octane.HBr] | 22 | – | – | % Inhibition (percent of pairs in which the mania is inhibited) ([1]; dose 25 mg/kg): 100%
O=C(CCCN1CCC2(c3cccc(O)c3)CCC1C2)c1ccc(F)cc1 (stereo not shown) [2-[3-(4-fluorobenzoyl)propyl]-5-(3-hydroxyphenyl)-2-azabicyclo[3.2.1]octane.HBr] | – | – | – | % Inhibition (percent of pairs in which the mania is inhibited) ([1]; dose 10 mg/kg): 100%
O=C(CCCN1CCC2(c3cccc(O)c3)CCC1C2)c1ccc(F)cc1 (stereo not shown) [2-[3-(4-fluorobenzoyl)propyl]-5-(3-hydroxyphenyl)-2-azabicyclo[3.2.1]octane] | – | 0.35 | – | –
COc1cccc(C23CCC(C2)N(CCCC(=O)c2ccc(F)cc2)CC3)c1 (stereo not shown) [2-[3-(4-fluorobenzoyl)propyl]-5-(3-methoxyphenyl)-2-azabicyclo[3.2.1]octane.HBr] | – | – | – | % Inhibition (percent of pairs in which the mania is inhibited) ([1]; dose 10 mg/kg): 100%; ED50 ([2]; 1 h, mice, subcutaneous, drug administration time 60 minutes): 0.7 mg/kg
Oc1cccc(C23CCC(C2)N(CC2CC2)CC3)c1 (stereo not shown) [2-cyclopropylmethyl-5-(3-hydroxyphenyl)-2-azabicyclo[3.2.1]octane.HBr] | – | 6 | – | % Inhibition (percent of pairs in which the mania is inhibited) ([1]; dose 25 mg/kg): 100%
CCCCCN1CCC2(c3cccc(O)c3)CCC1C2 (stereo not shown) [2-n-amyl-5-(3-hydroxyphenyl)-2-azabicyclo[3.2.1]octane.HBr] | – | 11 | – | % Inhibition (percent of pairs in which the mania is inhibited) ([1]; dose 3 mg/kg): 50%; % Inhibition (percent of pairs in which the mania is inhibited) ([1]; dose 25 mg/kg): 100%
CCCCCN1CCC2(c3cccc(OC)c3)CCC1C2 (stereo not shown) [2-n-amyl-5-(3-methoxyphenyl)-2-azabicyclo[3.2.1]octane.HBr] | – | 5 | – | % Inhibition (percent of pairs in which the mania is inhibited) ([1]; dose 30 mg/kg): 100%
CCCCN1CCC2(c3cccc(O)c3)CCC1C2 (stereo not shown) [2-n-butyl-5-(3-hydroxyphenyl)-2-azabicyclo[3.2.1]octane.HBr] | 9 | – | – | % Inhibition (percent of pairs in which the mania is inhibited) ([1]; dose 25 mg/kg): 100%
CCCCN1CCC2(c3cccc(OC)c3)CCC1C2 (stereo not shown) [2-n-butyl-5-(3-methoxyphenyl)-2-azabicyclo[3.2.1]octane.HBr] | – | 4.6 | – | % Inhibition (percent of pairs in which the mania is inhibited) ([1]; dose 25 mg/kg): 100%
CC(=O)Oc1cccc(C23CCC(C2)N(C)CC3)c1 (stereo not shown) [5-(3-acetoxyphenyl)-2-methyl-2-azabicyclo[3.2.1]octane.HBr] | – | – | 100 | –
CC(=O)Oc1cccc(C23CCC(C2)N(CCc2ccccc2)CC3)c1 (stereo not shown) [5-(3-acetoxyphenyl)-2-phenethyl-2-azabicyclo[3.2.1]octane.HBr] | – | 6.1 | – | % Inhibition (percent of pairs in which the mania is inhibited) ([1]; dose 10 mg/kg): 70%
CN1CCC2(c3cccc(O)c3)CCC1C2 (stereo not shown) [5-(3-hydroxyphenyl)-2-methyl-2-azabicyclo[3.2.1]octane.HBr] | – | 9.5 | 80 | –
CCCN1CCC2(c3cccc(O)c3)CCC1C2 (stereo not shown) [5-(3-hydroxyphenyl)-2-n-propyl-2-azabicyclo[3.2.1]octane.HBr] | 8.9 | – | 100 | –
Oc1cccc(C23CCC(C2)N(CCc2ccccc2)CC3)c1 (stereo not shown) [5-(3-hydroxyphenyl)-2-phenethyl-2-azabicyclo[3.2.1]octane.HBr] | 0.7 | – | 100 | % Inhibition (percent of pairs in which the mania is inhibited) ([1]; dose 1 mg/kg): 50%
COc1cccc(C23CCC(C2)N(C)CC3)c1 (stereo not shown) [5-(3-methoxyphenyl)-2-methyl-2-azabicyclo[3.2.1]octane.HBr] | – | 7.9 | 50 | –
CCCN1CCC2(c3cccc(OC)c3)CCC1C2 (stereo not shown) [5-(3-methoxyphenyl)-2-n-propyl-2-azabicyclo[3.2.1]octane.HBr] | 7.4 | – | 100 | % Inhibition (percent of pairs in which the mania is inhibited) ([1]; dose 10 mg/kg): 50%
COc1cccc(C23CCC(C2)N(CCc2ccccc2)CC3)c1 (stereo not shown) [5-(3-methoxyphenyl)-2-phenethyl-2-azabicyclo[3.2.1]octane.HBr] | – | 5.9 | – | –
CN1CC[C@]23c4c5ccc(O)c4O[C@H]2[C@@H](O)C=C[C@H]3[C@H]1C5 [morphine, reference compound] | – | – | – | ED50 ([2]; 0.5 h): 0.47 mg/kg
CC(C)=CCN1CCC2(C)c3cc(O)ccc3CC1C2C (stereo not shown) [pentazocine, reference compound] | 1.5 | 4.8 | – | ED50 ([1]; Mus musculus, sc, mice, concurrently with morphine sulfate, for comparison, read-out: dose exhibiting a 50% inhibition (of morphine mania)): > 50 mg/kg
